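Following 48 hours of exposure in 96-well plates, responses at five concentrations were used to interpolate endpoints linearly. At the GI50, growth is halved.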 Activity calls are given as the source filed them. No stated cut-off is given here; in the data, active = GI50 up to about 1.1 µM and inactive = higher.
How the values were obtained:
Experiment in all cases: growth of human tumour cells (NCI), 48 h
OVCAR-5 = tested on: OVCAR-5
EKVX = tested on: EKVX
MDA-MB-231 = tested on: MDA-MB-231
MDA-MB-435 = tested on: MDA-MB-435
HT-29 = tested on: HT-29
SK-OV-3 = tested on: SK-OV-3
COLO 205 = tested on: COLO 205
TK-10 = tested on: TK-10
786-0 = tested on: 786-0
IGROV-1 = tested on: IGROV-1
HOP-92 = tested on: HOP-92
NCI-H522 = tested on: NCI-H522
Malme-3M = tested on: Malme-3M
RPMI-8226 = tested on: RPMI-8226
SNB-19 = tested on: SNB-19
UO-31 = tested on: UO-31
M14 = tested on: M14
KM12 = tested on: KM12
BT-549 = tested on: BT-549

| SMILES | GI50 (OVCAR-5) | GI50 (EKVX) | GI50 (MDA-MB-231) | GI50 (MDA-MB-435) | GI50 (HT-29) | GI50 (SK-OV-3) | GI50 (COLO 205) | GI50 (TK-10) | GI50 (786-0) | GI50 (IGROV-1) | GI50 (HOP-92) | GI50 (NCI-H522) | GI50 (Malme-3M) | GI50 (RPMI-8226) | GI50 (SNB-19) | GI50 (UO-31) | GI50 (M14) | GI50 (KM12) | GI50 (BT-549) |
| --- | --- | --- | --- | --- | --- | --- | --- | --- | --- | --- | --- | --- | --- | --- | --- | --- | --- | --- | --- |
| CCO/C=N\C1=C(C#N)SC2=N/C(=C\c3ccc(OC)cc3)C(=O)N21 | > 100 µM (inactive) | 60.1 µM (inactive) | 80.5 µM (inactive) | > 100 µM (inactive) | > 100 µM (inactive) | 96.8 µM (inactive) | > 100 µM (inactive) | 58.2 µM (inactive) | 40.6 µM (inactive) | 96.8 µM (inactive) | > 100 µM (inactive) | 79.8 µM (inactive) | > 100 µM (inactive) | > 100 µM (inactive) | 83.6 µM (inactive) | > 100 µM (inactive) | > 100 µM (inactive) | > 100 µM (inactive) | – |
| Cn1c(=O)c2[nH]c(C3CC(=O)CC(c4nc5c([nH]4)c(=O)n(C)c(=O)n5C)N3)nc2n(C)c1=O (stereo unspecified) | > 100 µM (inactive) | > 100 µM (inactive) | > 100 µM (inactive) | > 100 µM (inactive) | > 100 µM (inactive) | > 100 µM (inactive) | 97.7 µM (inactive) | > 100 µM (inactive) | > 100 µM (inactive) | > 100 µM (inactive) | – | > 100 µM (inactive) | > 100 µM (inactive) | > 100 µM (inactive) | > 100 µM (inactive) | > 100 µM (inactive) | > 100 µM (inactive) | > 100 µM (inactive) | > 100 µM (inactive) |
| CO/N=C1\CC(NC(=O)C(F)(F)F)c2ccsc21 (stereo unspecified) | > 100 µM (inactive) | > 100 µM (inactive) | > 100 µM (inactive) | > 100 µM (inactive) | > 100 µM (inactive) | > 100 µM (inactive) | > 100 µM (inactive) | > 100 µM (inactive) | – | > 100 µM (inactive) | > 100 µM (inactive) | – | > 100 µM (inactive) | – | – | > 100 µM (inactive) | > 100 µM (inactive) | – | > 100 µM (inactive) |
| Cc1cn(C2CC(OP(=O)(O)OCC3OC(n4c[n+]([BH2-]C#N)c5c(=O)[nH]c(N)nc54)CC3O)C(CO)O2)c(=O)[nH]c1=O (stereo unspecified) | > 100 µM (inactive) | > 100 µM (inactive) | > 100 µM (inactive) | – | > 100 µM (inactive) | – | > 100 µM (inactive) | – | > 100 µM (inactive) | > 100 µM (inactive) | > 100 µM (inactive) | > 100 µM (inactive) | > 100 µM (inactive) | > 100 µM (inactive) | > 100 µM (inactive) | > 100 µM (inactive) | > 100 µM (inactive) | > 100 µM (inactive) | – |
| CN(C)c1n/c(=N/Cc2ccccc2)ss1 | > 10 µM (inactive) | > 10 µM (inactive) | > 10 µM (inactive) | > 10 µM (inactive) | > 10 µM (inactive) | > 10 µM (inactive) | > 10 µM (inactive) | > 10 µM (inactive) | > 6.82 µM (inactive) | > 10 µM (inactive) | > 10 µM (inactive) | 2.61 µM (inactive) | > 10 µM (inactive) | 2.9 µM (inactive) | > 10 µM (inactive) | 9.25 µM (inactive) | > 10 µM (inactive) | > 10 µM (inactive) | – |
| CSc1cc(Cl)c(C)cc1S(=O)(=O)NC(=O)NNc1ccc(F)cc1 | > 100 µM (inactive) | > 100 µM (inactive) | > 100 µM (inactive) | > 100 µM (inactive) | > 100 µM (inactive) | > 100 µM (inactive) | > 100 µM (inactive) | – | > 100 µM (inactive) | > 100 µM (inactive) | – | > 100 µM (inactive) | > 100 µM (inactive) | – | > 100 µM (inactive) | – | > 100 µM (inactive) | > 100 µM (inactive) | – |
| CC(=O)c1c(=O)n(-c2ccc(C)cc2)c(O)c2c(N)n[nH]c12 | > 100 µM (inactive) | > 100 µM (inactive) | > 100 µM (inactive) | > 100 µM (inactive) | > 100 µM (inactive) | > 100 µM (inactive) | > 100 µM (inactive) | > 100 µM (inactive) | > 100 µM (inactive) | > 100 µM (inactive) | – | > 100 µM (inactive) | > 100 µM (inactive) | > 100 µM (inactive) | > 100 µM (inactive) | 60 µM (inactive) | > 100 µM (inactive) | > 100 µM (inactive) | > 100 µM (inactive) |
| COc1cc([C@@H]2c3cc4c(cc3[C@@H](Nc3ccc([N+](=O)[O-])cc3C(=O)c3ccccc3)[C@H]3COC(=O)[C@H]23)OCO4)cc(OC)c1OC | 0.555 µM (active) | > 100 µM (inactive) | 0.548 µM (active) | 0.071 µM (active) | 0.32 µM (active) | 0.46 µM (active) | 0.293 µM (active) | > 100 µM (inactive) | 0.425 µM (active) | 0.5 µM (active) | 8.05 µM (inactive) | 0.16 µM (active) | 0.481 µM (active) | 0.394 µM (active) | 0.603 µM (active) | 0.23 µM (active) | 0.281 µM (active) | 0.266 µM (active) | – |
| CCc1ccccc1/N=N/C(=O)NNc1ccccc1CC | 14.9 µM (inactive) | – | 21.3 µM (inactive) | 24.4 µM (inactive) | 24 µM (inactive) | – | – | 22.1 µM (inactive) | 17.6 µM (inactive) | 11 µM (inactive) | – | 19.7 µM (inactive) | 17.6 µM (inactive) | 22.2 µM (inactive) | 25.8 µM (inactive) | 17.3 µM (inactive) | 16.9 µM (inactive) | – | 18.4 µM (inactive) |
| COc1cc(OC)c2nc(C)c(CCCl)c(Cl)c2c1 | > 100 µM (inactive) | > 100 µM (inactive) | > 100 µM (inactive) | > 100 µM (inactive) | > 100 µM (inactive) | > 100 µM (inactive) | > 100 µM (inactive) | > 100 µM (inactive) | > 100 µM (inactive) | > 100 µM (inactive) | – | > 100 µM (inactive) | > 100 µM (inactive) | > 100 µM (inactive) | > 100 µM (inactive) | > 100 µM (inactive) | > 100 µM (inactive) | > 100 µM (inactive) | > 100 µM (inactive) |
| CCN1C(=O)/C(=C/Nc2ccccc2)S/C1=N/Nc1nc(-c2ccc(O)c(O)c2)cs1 | > 100 µM (inactive) | 16.9 µM (inactive) | 6.65 µM (inactive) | 1.71 µM (inactive) | 29.8 µM (inactive) | 33.5 µM (inactive) | 35.5 µM (inactive) | 38.5 µM (inactive) | 23 µM (inactive) | 32.6 µM (inactive) | 13.2 µM (inactive) | 3.66 µM (inactive) | 6.19 µM (inactive) | 12.3 µM (inactive) | 4.66 µM (inactive) | 8.02 µM (inactive) | 5.61 µM (inactive) | 5.01 µM (inactive) | – |
| O=[N+]([O-])c1ccc(-c2ccc([C@H]3CC(c4cc(F)c(Cl)cc4Cl)=NN3)o2)cc1 | > 100 µM (inactive) | > 100 µM (inactive) | – | 26.7 µM (inactive) | 37.4 µM (inactive) | 39.2 µM (inactive) | – | 31.8 µM (inactive) | 23.7 µM (inactive) | 38.7 µM (inactive) | 26.6 µM (inactive) | 16.6 µM (inactive) | 19.2 µM (inactive) | 20.9 µM (inactive) | > 100 µM (inactive) | 69.3 µM (inactive) | 13.3 µM (inactive) | 0.625 µM (active) | 25.4 µM (inactive) |
| O=[N+]([O-])c1ccc(Cc2nc3cc4ccccc4cc3[nH]2)cc1C(F)(F)F | 14.4 µM (inactive) | 25.8 µM (inactive) | – | 6.12 µM (inactive) | 14.3 µM (inactive) | 13.5 µM (inactive) | 4.32 µM (inactive) | 20.2 µM (inactive) | 12.7 µM (inactive) | – | 14.9 µM (inactive) | 20.4 µM (inactive) | 9.79 µM (inactive) | – | 15.6 µM (inactive) | 15.8 µM (inactive) | 12.4 µM (inactive) | 13.4 µM (inactive) | 18.2 µM (inactive) |
| CSc1ccc(NC(=S)NN(C)C)cc1 | – | > 10 µM (inactive) | > 10 µM (inactive) | > 10 µM (inactive) | > 10 µM (inactive) | > 10 µM (inactive) | > 10 µM (inactive) | > 10 µM (inactive) | > 10 µM (inactive) | > 10 µM (inactive) | > 10 µM (inactive) | > 10 µM (inactive) | > 10 µM (inactive) | > 10 µM (inactive) | > 10 µM (inactive) | > 10 µM (inactive) | > 10 µM (inactive) | > 10 µM (inactive) | – |
| CCCCCc1cc2c(cc1O)CC[C@@H]1[C@@H]2CC[C@]2(C)[C@@H](O)CC[C@@H]12 | 18.8 µM (inactive) | 17.9 µM (inactive) | 18.4 µM (inactive) | 15.7 µM (inactive) | 20 µM (inactive) | 21.8 µM (inactive) | 16.1 µM (inactive) | 16.3 µM (inactive) | 14.8 µM (inactive) | 18.5 µM (inactive) | 14.3 µM (inactive) | 18.8 µM (inactive) | 19.1 µM (inactive) | 19.1 µM (inactive) | 18.8 µM (inactive) | 13.9 µM (inactive) | 14.9 µM (inactive) | 10.9 µM (inactive) | – |
| c1ccc2sc(SCN(C3CCCCC3)C3CCCCC3)nc2c1 | > 100 µM (inactive) | > 100 µM (inactive) | > 100 µM (inactive) | > 100 µM (inactive) | > 100 µM (inactive) | – | – | > 100 µM (inactive) | – | > 100 µM (inactive) | > 100 µM (inactive) | > 100 µM (inactive) | > 100 µM (inactive) | – | > 100 µM (inactive) | > 100 µM (inactive) | > 100 µM (inactive) | > 100 µM (inactive) | > 100 µM (inactive) |
